Reference: US10786690B2, “Amide derivatives of polycaffeoylquinic acids, process for producing same and uses thereof” (TEMISIS, priority 2016, dated 2020)

Columns and labels:
LTB4 = LTB4 production by NHEKs in the inflammatory state (arachidonic acid + calcium ionophore), ELISA; format: cell-based, human; details: arachidonic acid 1 μM + calcium ionophore A23187 2 h, compounds 50 μM, NDGA 2 μM, relative to induced control
Protocol: (§1) The study was carried out on Normal Human Epidermal Keratinocytes (NHEKs) (Lonza, CC-2507, origin: foreskin) in monolayer culture in Epilife medium (Invitrogen, M-EPI-500-A) containing the components of the Human Keratinocyte Growth Supplement (HKGS) mixture (Invitrogen, S-001-K) added separately, except hydrocortisone having anti-inflammatory properties.
The induction of LTB4 production having a very fast kinetics, the scheme was adapted. In this case, the inflammatory state was induced for 2 h by applying arachidonic acid (a.a./1 μM/ethanol) combined with calcium ionophore A23187 (2 μM/DMSO). Nordihydroguaiaretic acid (NDGA) was used as reference molecule (2 μM/ethanol).
(§2) The effect of the compounds was studied by applying them to the keratinocyte culture medium 2 h prior to induction of the inflammatory state as well as during induction (2 h for LTB4, 24 h for IL-8, PGE2, IL-6 and TNF-α).
(§3) Each condition was carried out in triplicate cultures and the supernatants were recovered at the end of the various treatments.
(§4) Quantification of the various inflammatory mediators was carried out with specific kits, based on a standard curve, according to the instructions provided by the kits' suppliers, R&D Systems and Cayman Chemical.
(§5) Before induction of the inflammatory state, the NHEKs were treated with the compounds and reference molecules for 2 h. The inflammatory state was then induced according to the conditions described in the methodology section, the culture supernatants were collected, and the various inflammatory mediators were quantified by the ELISA technique.
The effects of the compounds on LTB4 production are shown in FIG. 8 and are expressed as a percentage of the treatment with arachidonic acid (a.a.) combined with calcium ionophore A23187 set at 100%.

[1] = tested on: Normal Human Epidermal Keratinocytes (NHEKs); assay: Microscopic observation of NHEK cell survival 48 h after inflammatory treatment; format: cell-based; details: for Result at 48 h: cell survival: NHEK cultures 48 h after inflammatory treatment (10 ng/mL PMA + 2 μM calcium ionophore A23187), microscopic observation; for effect on cell survival / cellular protection against inflammation: NHEK cultures 48 h after inflammatory treatment, summary in words
Protocol: The cells, treated and not treated by the compounds to be tested, were observed under an optical microscope 48 h after the following inflammatory treatment: 10 ng/mL PMA/H2O+2 μM calcium ionophore A23187/DMSO.
NHEKs were brought into contact or not with the compounds to be tested. After 2 h, the cells underwent or not an inflammation treatment (10 ng/mL PMA/H2O+2 μM calcium ionophore A23187/DMSO).
The cells were observed under an optical microscope 48 h after the inflammatory treatment.

PGE2 = PGE2 production by NHEKs in the inflammatory state (PMA), ELISA; format: cell-based, human; details: PMA 10 ng/ml 24 h, compounds 50 μM, indomethacin 10 μg/ml, relative to PMA induced control (100%)
Protocol: as §1
For the quantification of IL-8 and PGE2, the inflammatory state of the NHEKs in culture was induced by treatment with PMA (phorbol myristate acetate/10 ng/ml/H2O) for 24 h. Induction of IL-6 was achieved by treatment with PMA (10 ng/ml/H2O) combined with calcium ionophore A23187 (2 μM/DMSO) in medium containing calcium at a concentration of 0.8 mM. TNF-α secretion was induced by a combination of PMA (10 ng/ml/H2O) and calcium ionophore A23187 (2 μM/DMSO) applied for 24 h (TNF-α) in medium containing 0.06 mM calcium. The reference molecules used are dexamethasone (10 μM/H2O) and indomethacin (10 μg/ml/ethanol).
as §2, §3, §4, §5
The effect of the compounds on PGE2 production is presented in FIG. 5 and is expressed as a percentage of the PMA treatment set at 100%.

IL-6 = IL-6 production by NHEKs in the inflammatory state (PMA + calcium ionophore, 0.8 mM Ca2+), ELISA; format: cell-based, human; details: PMA + calcium ionophore A23187, 0.8 mM Ca2+, compounds 50 μM, dexamethasone 10 μM, relative to induced control
Protocol: as §1
For the quantification of IL-8 and PGE2, the inflammatory state of the NHEKs in culture was induced by treatment with PMA (phorbol myristate acetate/10 ng/ml/H2O) for 24 h. […]
as §4, §5
The effect of the compounds on IL-6 production by NHEKs in the inflammatory state is shown in FIG. 6 and is expressed as a percentage of the treatment with PMA combined with calcium ionophore A23187 (under high-calcium conditions: 0.8 mM Ca2+).

TNF-α = TNF-α production by NHEKs in the inflammatory state (PMA + calcium ionophore, 0.06 mM Ca2+), ELISA; format: cell-based, human; details: PMA + calcium ionophore A23187 24 h, compounds 50 μM, dexamethasone 10 μM, relative to induced control
Protocol: as §1
(§6) For the quantification of IL-8 and PGE2, the inflammatory state of the NHEKs in culture was induced by treatment with PMA (phorbol myristate acetate/10 ng/ml/H2O) for 24 h. Induction of IL-6 was achieved by treatment with PMA (10 ng/ml/H2O) combined with calcium ionophore A23187 (2 μM/DMSO) in medium containing calcium at a concentration of 0.8 mM. […]
as §4
as §5, with “technique. […]” for “technique.”

IL-8 = IL-8 production by NHEKs in the inflammatory state (PMA), ELISA; format: cell-based, human; details: PMA 10 ng/ml 24 h, compounds 50 μM, dexamethasone 10 μM, relative to PMA induced control (100%)
Protocol: as §1, §6, §4
as §5, with “technique. […]” for “technique.”

| Structure (SMILES) | LTB4 production (LTB4) | Result at 48 h: cell survival [1] | effect on cell survival / cellular protection against inflammation [1] | PGE2 production (PGE2) | IL-6 production (IL-6) | TNF-α production (TNF-α) | IL-8 production (IL-8) |
| --- | --- | --- | --- | --- | --- | --- | --- |
| CC(Cc1ccc(O)c(O)c1)C(C)Cc1ccc(O)c(O)c1 (stereo not drawn) [NDGA, Nordihydroguaiaretic acid, reference compound] | very highly significantly inhibits |  |  |  |  |  |  |
| O=C(/C=C/c1ccc(O)c(O)c1)O[C@@H]1[C@H](O)C[C@@](O)(C(=O)O)C[C@H]1OC(=O)/C=C/c1ccc(O)c(O)c1 [PAT964, 3,4-O-Dicaffeoylquinic] |  | 10% cell survival | little or no effect on cell survival |  |  |  |  |
| CCCCNC(=O)[C@]1(O)C[C@@H](OC(=O)/C=C/c2ccc(O)c(O)c2)[C@@H](O)[C@H](OC(=O)/C=C/c2ccc(O)c(O)c2)C1 [PAT1658, (2E,2′E)-((1R,2S,3R,5S)-5-(butylcarbamoyl)-2,5-dihydroxycyclohexane-1,3-diyl) bis(3-(3,4-dihydroxyphenyl)acrylate)] | block/decrease, in a very highly significant manner | 80% cell survival | strong cellular protection against inflammation | very highly significantly decrease |  |  |  |
| C[C@@H]1C[C@H]2[C@@H]3CCC4=CC(=O)C=C[C@]4(C)[C@@]3(F)[C@@H](O)C[C@]2(C)[C@@]1(O)C(=O)CO [dexamethasone] |  | 10% cell survival |  |  |  |  |  |
| O=C(/C=C/c1ccc(O)c(O)c1)O[C@@H]1C[C@](O)(C(=O)O)C[C@@H](OC(=O)/C=C/c2ccc(O)c(O)c2)[C@H]1O [PAT965, 3,5-O-Dicaffeoylquinic] |  | 10% cell survival | little or no effect on cell survival |  |  |  |  |
| O=C(/C=C/c1ccc(O)c(O)c1)O[C@H]1[C@H](O)C[C@](O)(C(=O)O)C[C@H]1OC(=O)/C=C/c1ccc(O)c(O)c1 [PAT967, 4,5-O-Dicaffeoylquinic] |  | 10% cell survival | little or no effect on cell survival | very highly significantly decrease |  |  |  |
| CCCCCCCCCCCCNC(=O)[C@]1(O)C[C@@H](OC(=O)/C=C/c2ccc(O)c(O)c2)[C@@H](O)[C@H](OC(=O)/C=C/c2ccc(O)c(O)c2)C1 [PAT1648, (2E,2′E)-((1R,2S,3R,5S)-5-(dodecylcarbamoyl)-2,5-dihydroxycyclohexane-1,3-diyl) bis(3-(3,4-dihydroxyphenyl) acrylate)] | block/decrease, in a very highly significant manner | Confluent culture: 100% | strong cellular protection against inflammation | very highly significantly decrease | largest decreases and are more effective than dexamethasone itself | most marked effects and are more effective than dexamethasone itself | inhibit/reduce IL-8 production to the baseline level |
| COc1ccc2c(c1)c(CC(=O)O)c(C)n2C(=O)c1ccc(Cl)cc1 [indomethacin, reference compound] |  |  |  | reduces this PGE2 production in the culture supernatants to an almost undetectable level |  |  |  |
